Assay results reported in patent US7081447B2, “Organic compounds with biological activity as thrombin inhibitors and use thereof” (Novel Science International GmbH, priority 2001, dated 2006).
Non-standard residues stand in square brackets, D forms with d. Residues, ends and D or L forms follow the SMILES beside them. Cha = N[CH](CC1CCCCC1)C(=O)O; Nle = CCCC[CH](N)C(=O)O; Orn = NCCC[CH](N)C(=O)O

Molecular target: thrombin (Homo sapiens, UniProt P00734)
Assay: in vitro inhibition of thrombin amidase activity (fluorogenic substrate Tos-Gly-Pro-Arg-(7-amino-4-methylcoumarin))
Assay type: biochemical
Set-up: with 10 μL of human thrombin solution
Settings: for inhibition at 25 µM: peptide concentration of 25 μM; for inhibition at 10 µM: peptide concentration of 10 μM
Method: (§1) The values of the inhibition constant Ki were obtained from assays, in which thrombin hydrolyzes the fluorogenic substrate Tos-Gly-Pro-Arg-(7-amino-4-methylcoumarin). The assays were performed in 30 μL of assay buffer (0.05 M Tris, 0.1 M NaCl, 0.1% PEG 8000, pH 7.6) with 10 μL of human thrombin solution (10^−5 U/μL in assay buffer) and 140 μL of a solution of the fluorogenic substrate in assay buffer at a concentration v of 30 μM. Solutions of the test compound (10 μL) were added at various concentrations. The rates of substrate hydrolysis were measured by monitoring the reactions of 7-amino-4-methylcoumarin release at 460 nm with use of AMC. The reaction reached a steady state within 3 minutes after thrombin was combined with the substrate and an inhibitor. The kinetic data of the competitive inhibition (Km, Vmax, and Ki) were analyzed with the aid of the Hanes plot (A/V vs. A at various i values).
as §1, with “concentration” for “concentration v”, “using” for “with the aid of”, “values for A; here, A is the substrate concentration and V the reaction rate).” for “i values).”
as §1, with “conducted” for “performed”, “concentration” for “concentration v”, “using” for “with the aid of”, “values for A; here, A is the substrate concentration and V the reaction rate).” for “i values).”

[1] = peptide concentration of 1 μM, 1 µM
[2] = peptide concentration of 250 nM

[H]/N=C(\N)NCCCC(NC(C)=O)C(=O)NC(CC1CCCCC1)C(=O)NC(CCCC)C(=O)NC(CC1CCCCC1)C(=O)NC(CCC(N)=O)C(N)=O [Example 1, N-Acetyl-L-Arg-L-Cha-L-Nle-L-Cha-D-Gln amide]
inhibition at 25 µM: 66%

[H]/N=C(\N)NCCCC(NC(C)=O)C(=O)NC(CC1CCCCC1)C(=O)NC(CC(=O)O)C(=O)NC(CC1CCCCC1)C(N)=O [Example 2, N-Acetyl-L-Arg-L-Cha-L-Asp-L-Cha amide]
inhibition at 25 µM: 68%

CCCCC(NC(=O)C(CC1CCCCC1)NC(=O)C(CCCNC(=N)N)NC(C)=O)C(=O)NC(CC1CCCCC1)C(=O)NC(CCCN)C(N)=O [Example 3, N-Acetyl-L-Arg-L-Cha-L-Nle-L-Cha-L-Orn amide] (Ac-R[Cha][Nle][Cha][Orn]-NH2; configuration not given here)
inhibition at 10 µM: 63%

CC(=O)NC(CCCNC(=N)N)C(=O)NC(CC1CCCCC1)C(=O)NC(CC1CCCCC1)C(=O)NC(CC1CCCCC1)C(=O)NC(CCC(=O)O)C(N)=O [Example 4, N-Acetyl-L-Arg-L-Cha-L-Cha-L-Cha-D-Glu amide] (Ac-R[Cha][Cha][Cha]E-NH2; configuration not given here)
inhibition at 10 µM: 78%

[H]/N=C(\N)NCCCC(NC(=O)C(Cc1ccc(O)cc1)NC(=O)C1CCCN1C(=O)C(CC1CCCCC1)NC(=O)C(CCCN/C(N)=N/[H])NC(C)=O)C(N)=O [Example 5, N-Acetyl-L-Arg-L-Cha-D-Pro-D-Tyr-L-Arg amide]
inhibition at 10 µM: 98%

[H]/N=C(\N)NCCCC(NC(C)=O)C(=O)NC(CC1CCCCC1)C(=O)NC(CC1CCCCC1)C(=O)NC(CC1CCCCC1)C(=O)NC(CCCN)C(N)=O [Example 6, N-Acetyl-L-Arg-L-Cha-L-Cha-L-Cha-L-Orn amide]
inhibition at 10 µM: 71%

CCCCC(NC(=O)C(CC1CCCCC1)NC(=O)C(CCCNC(=N)N)NC(C)=O)C(=O)NC(CC1CCCCC1)C(N)=O [Example 7, N-Acetyl-L-Arg-L-Cha-L-Nle-L-Cha amide] (Ac-R[Cha][Nle][Cha]-NH2; configuration not given here)
inhibition at 10 µM: 60%

CCCCC(NC(=O)C(CC1CCCCC1)NC(=O)C(CCCNC(=N)N)NC(C)=O)C(=O)NC(CC1CCCCC1)C(=O)NC(CCC(=O)O)C(N)=O [Example 8, N-Acetyl-L-Arg-L-Cha-L-Nle-L-Cha-D-Glu amide] (Ac-R[Cha][Nle][Cha]E-NH2; configuration not given here)
inhibition at 1 µM (peptide concentration of 1 μM): 35%

N-Acetyl-D-Gln-D-His-L-Cha-D-Pro-D-Tyr-L-Arg amide [Example 25]
Thrombin inhibition (thrombin amidase activity) (peptide concentration of 1 μM): 59%

N-Acetyl-D-Glu-L-Cha-D-Pro-D-Tyr-L-Arg amide [Example 26]
Thrombin inhibition (thrombin amidase activity) (peptide concentration of 1 μM): 58%

N-Acetyl-D-Lys-D-Pro-L-Cha-D-Pro-D-Tyr-L-Arg amide [Example 14]
Thrombin inhibition (thrombin amidase activity) (peptide concentration of 1 μM): 53%

N-Acetyl-D-Lys-L-Nle-L-Cha-D-Pro-D-Tyr-L-Arg amide [Example 20]
Thrombin inhibition (thrombin amidase activity) [1]: 44%

N-Acetyl-D-Lys-L-Nle-L-Cha-D-Pro-D-Tyr-L-Arg amide [Example 36]
Thrombin inhibition (thrombin amidase activity) [1]: 48%

N-Acetyl-D-Lys-L-Nle-L-Cha-D-Pro-D-Tyr-L-Arg amide [Example 51]
Thrombin inhibition (thrombin amidase activity) [1]: 48%

N-Acetyl-D-Lys-L-Nle-L-Cha-D-Pro-D-Tyr-L-Arg amide [Example 69]
Thrombin inhibition (thrombin amidase activity) [1]: 48%

N-Acetyl-D-Phe-D-Cha-L-Aze-D-Tyr-L-Har amide [Example 77]
Thrombin inhibition (thrombin amidase activity) [2]: 77%

N-Acetyl-D-Tyr-L-Cha-D-Pro-D-Tyr-L-Arg amide [Example 24]
Thrombin inhibition (thrombin amidase activity) [1]: 27%

N-Acetyl-D-Tyr-L-Cha-D-Pro-D-Tyr-L-Arg amide [Example 37]
Thrombin inhibition (thrombin amidase activity) [1]: 47%

N-Acetyl-D-Tyr-L-Cha-D-Pro-D-Tyr-L-Arg amide [Example 52]
Thrombin inhibition (thrombin amidase activity) [1]: 47%

N-Acetyl-D-Tyr-L-Cha-D-Pro-D-Tyr-L-Arg amide [Example 70]
Thrombin inhibition (thrombin amidase activity) [1]: 47%

N-Acetyl-D-Val-D-His-L-Cha-D-Pro-D-Tyr-L-Arg amide [Example 27]
Thrombin inhibition (thrombin amidase activity) (peptide concentration of 1 μM): 51%

N-Acetyl-D-Val-L-Ala-L-Cha-D-Pro-D-Tyr-L-Arg amide [Example 9]
Thrombin inhibition (thrombin amidase activity) (peptide concentration of 1 μM): 53%

N-Acetyl-D-Val-L-Cha-D-Pro-D-Tyr-L-Arg amide [Example 12]
Thrombin inhibition (thrombin amidase activity) [1]: 46%

N-Acetyl-D-Val-L-Cha-D-Pro-D-Tyr-L-Arg amide [Example 32]
Thrombin inhibition (thrombin amidase activity) [1]: 45%

N-Acetyl-D-Val-L-Cha-D-Pro-D-Tyr-L-Arg amide [Example 47]
Thrombin inhibition (thrombin amidase activity) [1]: 45%

N-Acetyl-D-Val-L-Cha-D-Pro-D-Tyr-L-Arg amide [Example 65]
Thrombin inhibition (thrombin amidase activity) [1]: 45%

N-Acetyl-L-Ala-D-Cha-L-Aze-D-Tyr-L-Arg amide [Example 55]
Thrombin inhibition (thrombin amidase activity) (peptide concentration of 1 μM): 63%

N-Acetyl-L-Ala-D-Cha-L-Aze-D-Tyr-L-Har amide [Example 57]
Thrombin inhibition (thrombin amidase activity) (peptide concentration of 1 μM): 83%

N-Acetyl-L-Ala-D-Cha-L-Aze-D-Tyr-L-Har amide [Example 76]
Thrombin inhibition (thrombin amidase activity) [2]: 77%

N-Acetyl-L-Ala-D-Cha-L-Pro-D-Tyr-L-Har amide [Example 56]
Thrombin inhibition (thrombin amidase activity) (peptide concentration of 1 μM): 56%

N-Acetyl-L-Ala-L-Cha-D-Pro-D-Tyr-L-Arg amide [Example 28]
Thrombin inhibition (thrombin amidase activity) (peptide concentration of 1 μM): 44%

N-Acetyl-L-Arg-L-Cha-D-Pro-D-Tyr-L-Arg amide [Example 21]
Thrombin inhibition (thrombin amidase activity) [1]: 38%

N-Acetyl-L-Arg-L-Cha-D-Pro-D-Tyr-L-Arg amide [Example 38]
Thrombin inhibition (thrombin amidase activity) [1]: 47%

N-Acetyl-L-Arg-L-Cha-D-Pro-D-Tyr-L-Arg amide [Example 53]
Thrombin inhibition (thrombin amidase activity) [1]: 47%

N-Acetyl-L-Arg-L-Cha-D-Pro-D-Tyr-L-Arg amide [Example 71]
Thrombin inhibition (thrombin amidase activity) [1]: 47%

N-Acetyl-L-Asp-L-Ser-L-Cha-D-Pro-D-Tyr-L-Arg amide [Example 10]
Thrombin inhibition (thrombin amidase activity) (peptide concentration of 1 μM): 51%

N-Acetyl-L-Cha-D-Cha-L-Aze-D-Tyr-L-Har amide [Example 85]
Thrombin inhibition (thrombin amidase activity) [2]: 90%

N-Acetyl-L-Dcp-D-Cha-L-Aze-D-Tyr-L-Har amide [Example 78]
Thrombin inhibition (thrombin amidase activity) [2]: 75%

N-Acetyl-L-Ile-L-Arg-L-Cha-D-Pro-D-Tyr-L-Arg amide [Example 29]
Thrombin inhibition (thrombin amidase activity) (peptide concentration of 1 μM): 61%

N-Acetyl-L-Ile-L-Cha-D-Pro-D-Tyr-L-Arg amide [Example 11]
Thrombin inhibition (thrombin amidase activity) (peptide concentration of 1 μM): 48%

N-Acetyl-L-Iq3-D-Cha-L-Aze-D-Tyr-L-Har amide [Example 80]
Thrombin inhibition (thrombin amidase activity) [2]: 72%

N-Acetyl-L-Nhm-D-Cha-L-Aze-D-Tyr-L-Har amide [Example 79]
Thrombin inhibition (thrombin amidase activity) [2]: 80%

N-Acetyl-L-Nle-D-Cha-L-Aze-D-Tyr-L-Har amide [Example 84]
Thrombin inhibition (thrombin amidase activity) [2]: 89%

N-Acetyl-L-Phg-D-Cha-L-Aze-D-Tyr-L-Har amide [Example 83]
Thrombin inhibition (thrombin amidase activity) [2]: 95%

N-Acetyl-L-Pnp-D-Cha-L-Aze-D-Tyr-L-Har amide [Example 86]
Thrombin inhibition (thrombin amidase activity) [2]: 72%

N-Acetyl-L-Ppd-D-Cha-L-Aze-D-Tyr-L-Har amide [Example 81]
Thrombin inhibition (thrombin amidase activity) [2]: 76%

N-Acetyl-L-Ser-D-Glu-L-Cha-D-Pro-D-Tyr-L-Arg amide [Example 23]
Thrombin inhibition (thrombin amidase activity) (peptide concentration of 1 μM): 21%

N-Acetyl-L-Ser-D-Val-L-Cha-D-Pro-D-Tyr-L-Arg amide [Example 16]
Thrombin inhibition (thrombin amidase activity) (peptide concentration of 1 μM): 48%

N-Acetyl-L-Ser-L-Ala-L-Cha-D-Pro-D-Tyr-L-Arg amide [Example 17]
Thrombin inhibition (thrombin amidase activity) [1]: 48%

N-Acetyl-L-Ser-L-Ala-L-Cha-D-Pro-D-Tyr-L-Arg amide [Example 34]
Thrombin inhibition (thrombin amidase activity) [1]: 47%

N-Acetyl-L-Ser-L-Ala-L-Cha-D-Pro-D-Tyr-L-Arg amide [Example 49]
Thrombin inhibition (thrombin amidase activity) [1]: 47%
